The first test relates to HLA-A2. The experiment in a line: Peptide binding affinity: stabilization of HLA-A2 on TAP-deficient T2 cells. The conditions noted are these: stabilization (normalized mean fluorescence intensity) of HLA-A2 on TAP-deficient T2 cells by test peptide relative to a non-binding peptide; six hours incubation; flow cytometry. In general terms: A flow cytometer gives signals particle by particle.
Consider FLQGISPKA [RF-IA], for which the Observed relative binding came out at 4.78.
On the same count and under the same terms, the result for FLQGISPKI [RF] reads 4.97; that for FLQGISPKV [RF-IV], 4.25; that for RAQGISPKI [LA], 1.31.
RIQGISPKI [LI]: the Observed relative binding came to 2.34.
With RLQGISPKA [IA], the Observed relative binding is given as 3.79.
On the same count and under the same terms, the result for RLQGISPKI [Nat] reads 3.61; that for RLQGISPKL [IL], 3.89.
Same read-out and setting: the result for RLQGISPKP [IP] reads 1.07; that for RLQGISPKV [IV], 3.88.

In the next test the test system is E.G7-OVA PD-L1^high tumors. The experiment in a line: Tumor treatment study: peptide immunization after OT-1 adoptive transfer. It counts as in vivo, C57BL/6 mice. Particulars: tumors removed on day 40, flow cytometry; 100 µg peptide in CFA.
Take SIINTEKL [FT]: the “Number of CD8 TILs (percent of CD45^+ cells) compared to high-affinity vaccination” value is given as “significantly increased”.

The values above are taken from PMC5821110 (Cancer immunology research, 2017).
